Data from PubChem BioAssay (NCI).
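In this assay, cells in 96-well plates receive the compound at five concentrations for 48 hours. Endpoints are linearly interpolated between the surrounding concentrations. Here, GI50 denotes the concentration required for 50% inhibition of growth. At the TGI there is no net growth.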

Key:
Assay in all cases: NCI-60 cell line screen, 48 h; in the data active means GI50 below about 0.43 µM; inactive means the rest
SN12C renal = system: SN12C renal
HCC-2998 colon = system: HCC-2998 colon
SR leukemia = system: SR leukemia
SF-268 CNS = system: SF-268 CNS
OVCAR-3 ovarian = system: OVCAR-3 ovarian
SK-MEL-2 melanoma = system: SK-MEL-2 melanoma
MALME-3M melanoma = system: MALME-3M melanoma
SNB-75 CNS = system: SNB-75 CNS
NCI/ADR-RES ovarian = system: NCI/ADR-RES ovarian
HS 578T breast = system: HS 578T breast

CCC12CCCN(Cc3ccccc3)C1c1c(n(C)c3ccccc13)C(CO)C2 (centres undefined)
> 257 µM: TGI (SF-268 CNS)
105 µM: TGI (SR leukemia)
81.2 µM: TGI (SN12C renal)
84.6 µM: TGI (MALME-3M melanoma)
90.7 µM: TGI (OVCAR-3 ovarian)
121 µM: TGI (HCC-2998 colon)
107 µM: TGI (SK-MEL-2 melanoma)

[O-]/N=[N+](/[O-])C1CCCCC1=[N+]1CCOCC1 (centres undefined)
> 100 µM: TGI (SN12C renal) | TGI (SR leukemia) | TGI (SF-268 CNS) | TGI (OVCAR-3 ovarian) | TGI (SK-MEL-2 melanoma) | TGI (MALME-3M melanoma)

COC(=O)[C@H](CC(C)C)NC(=O)[C@H](Cc1ccccc1)N1CC2C=CC1C2 (some centres undefined)
> 100 µM: TGI (SN12C renal) | TGI (HCC-2998 colon) | TGI (SF-268 CNS) | TGI (OVCAR-3 ovarian) | TGI (SK-MEL-2 melanoma) | TGI (MALME-3M melanoma) | TGI (SNB-75 CNS)

CN1C(=O)CC2(C)c3cc(O)cc(Br)c3N(C)C12 (centres undefined)
> 100 µM: TGI (SN12C renal) | TGI (HCC-2998 colon) | TGI (SF-268 CNS) | TGI (OVCAR-3 ovarian) | TGI (SK-MEL-2 melanoma) | TGI (MALME-3M melanoma) | TGI (SNB-75 CNS)

N#CC(C#N)=NNc1ccc2cn[nH]c2c1
69.5 µM: TGI (MALME-3M melanoma)
92.3 µM: TGI (SN12C renal)
> 100 µM: TGI (SF-268 CNS) | TGI (SK-MEL-2 melanoma) | TGI (NCI/ADR-RES ovarian) | TGI (HS 578T breast)
55.5 µM: TGI (SR leukemia)
76.1 µM: TGI (OVCAR-3 ovarian)

CC1(C)NC(=O)N(CCCCCCN2C(=O)NC(C)(C)C2=O)C1=O
> 100 µM: TGI (SN12C renal) | TGI (HCC-2998 colon) | TGI (SF-268 CNS) | TGI (SK-MEL-2 melanoma) | TGI (MALME-3M melanoma) | TGI (SNB-75 CNS)

Cc1ccc(C)c2c1C(=O)N(c1ccc(F)cc1F)C2=O
inactive: GI50 (SN12C renal) > 100 µM | GI50 (SF-268 CNS) > 100 µM | GI50 (OVCAR-3 ovarian) > 100 µM | GI50 (SK-MEL-2 melanoma) > 100 µM | GI50 (NCI/ADR-RES ovarian) > 100 µM | GI50 (MALME-3M melanoma) > 100 µM | GI50 (SNB-75 CNS) > 100 µM | GI50 (HS 578T breast) > 100 µM
> 100 µM: TGI (SN12C renal) | TGI (SF-268 CNS) | TGI (OVCAR-3 ovarian) | TGI (SK-MEL-2 melanoma) | TGI (NCI/ADR-RES ovarian) | TGI (MALME-3M melanoma) | TGI (SNB-75 CNS) | TGI (HS 578T breast)

O=C(CN1CCN(Cc2ccccc2Cl)CC1)NC1CC(=O)c2c(Br)sc(Br)c21 (centres undefined)
71.5 µM: TGI (HS 578T breast)
43.4 µM: TGI (OVCAR-3 ovarian)
31.4 µM: TGI (SK-MEL-2 melanoma)
35.1 µM: TGI (HCC-2998 colon)
35.9 µM: TGI (SN12C renal)
41.9 µM: TGI (NCI/ADR-RES ovarian)
36.7 µM: TGI (SF-268 CNS)
inactive: GI50 (SN12C renal) 19.1 µM | GI50 (HCC-2998 colon) 19.8 µM | GI50 (SF-268 CNS) 19 µM | GI50 (OVCAR-3 ovarian) 20.8 µM | GI50 (SK-MEL-2 melanoma) 15.7 µM | GI50 (NCI/ADR-RES ovarian) 19.6 µM | GI50 (MALME-3M melanoma) 21.6 µM | GI50 (HS 578T breast) 29.4 µM
43.8 µM: TGI (MALME-3M melanoma)

C/C(CCn1[nH]c(=O)ccc1=O)=N\NC(=O)C(N)=O
> 100 µM: TGI (SN12C renal) | TGI (HCC-2998 colon) | TGI (SF-268 CNS) | TGI (OVCAR-3 ovarian) | TGI (SK-MEL-2 melanoma) | TGI (MALME-3M melanoma) | TGI (SNB-75 CNS)

CCc1ccccc1NC(=O)C(=O)C(C#N)c1ccccc1Cl (centres undefined)
> 100 µM: TGI (SN12C renal) | TGI (HCC-2998 colon) | TGI (SF-268 CNS) | TGI (OVCAR-3 ovarian) | TGI (SK-MEL-2 melanoma) | TGI (MALME-3M melanoma) | TGI (SNB-75 CNS)

COC(=O)C1=COC2OC3C(C(C)O)C(=O)OC34C=CC1C24 (centres undefined)
69 µM: TGI (NCI/ADR-RES ovarian)
> 100 µM: TGI (SN12C renal) | TGI (HCC-2998 colon) | TGI (SF-268 CNS) | TGI (OVCAR-3 ovarian) | TGI (SK-MEL-2 melanoma) | TGI (MALME-3M melanoma) | TGI (SNB-75 CNS) | TGI (HS 578T breast)

N#CC(C#N)=CNCCN1CCN(C=C(C#N)C#N)CC1
> 100 µM: TGI (SN12C renal) | TGI (SR leukemia) | TGI (SF-268 CNS) | TGI (OVCAR-3 ovarian) | TGI (SK-MEL-2 melanoma) | TGI (NCI/ADR-RES ovarian) | TGI (MALME-3M melanoma) | TGI (HS 578T breast)

CNS(=O)(=O)OCC1OC(n2cnc3cncnc32)C(O)C1O (centres undefined)
inactive: GI50 (SN12C renal) > 100 µM | GI50 (HCC-2998 colon) > 100 µM | GI50 (SF-268 CNS) > 100 µM | GI50 (OVCAR-3 ovarian) > 100 µM | GI50 (SK-MEL-2 melanoma) > 100 µM | GI50 (NCI/ADR-RES ovarian) > 100 µM | GI50 (MALME-3M melanoma) > 100 µM | GI50 (SNB-75 CNS) > 100 µM | GI50 (HS 578T breast) > 100 µM
> 100 µM: TGI (SN12C renal) | TGI (HCC-2998 colon) | TGI (SF-268 CNS) | TGI (OVCAR-3 ovarian) | TGI (SK-MEL-2 melanoma) | TGI (NCI/ADR-RES ovarian) | TGI (MALME-3M melanoma) | TGI (SNB-75 CNS) | TGI (HS 578T breast)

CC(C)(C)N/N=C(\C(=O)Nc1cccc(Cl)c1)C1C(=O)Nc2ccccc2S1=O (centres undefined)
> 100 µM: TGI (SN12C renal) | TGI (HCC-2998 colon) | TGI (SR leukemia) | TGI (SF-268 CNS) | TGI (OVCAR-3 ovarian) | TGI (SK-MEL-2 melanoma) | TGI (SNB-75 CNS)
47.4 µM: TGI (MALME-3M melanoma)

O=C(Cc1nc2ccc(C(=O)c3ccccc3)cc2[nH]c1=O)C(=O)Nc1nc2ccccc2[nH]1
> 100 µM: TGI (SN12C renal) | TGI (HCC-2998 colon) | TGI (SR leukemia) | TGI (SF-268 CNS) | TGI (OVCAR-3 ovarian) | TGI (MALME-3M melanoma) | TGI (SNB-75 CNS)

O=C(O)CN(c1ccccc1)S(=O)(=O)c1cccc([N+](=O)[O-])c1
> 100 µM: TGI (SN12C renal) | TGI (SF-268 CNS) | TGI (OVCAR-3 ovarian) | TGI (SK-MEL-2 melanoma) | TGI (MALME-3M melanoma) | TGI (SNB-75 CNS)

O=C1C(=c2ccc(=C3C(=O)c4ccc([N+](=O)[O-])cc4[N+]3=O)cc2)N([O-])c2cc([N+](=O)[O-])ccc21
> 100 µM: TGI (SN12C renal) | TGI (HCC-2998 colon) | TGI (OVCAR-3 ovarian) | TGI (SK-MEL-2 melanoma) | TGI (MALME-3M melanoma)
inactive: GI50 (SN12C renal) > 100 µM | GI50 (HCC-2998 colon) > 100 µM | GI50 (OVCAR-3 ovarian) > 100 µM | GI50 (SK-MEL-2 melanoma) > 100 µM | GI50 (MALME-3M melanoma) > 100 µM
69.8 µM: TGI (SNB-75 CNS)

COc1cc2c3c(n(CCCN4CCNCC4)c(=O)c2cc1OC)-c1cc2c(cc1C3=O)OCO2
3.98 µM: TGI (HCC-2998 colon)
active: GI50 (SN12C renal) 0.102 µM
4.35 µM: TGI (OVCAR-3 ovarian)
8.49 µM: TGI (SF-268 CNS)
12.2 µM: TGI (MALME-3M melanoma)
11.1 µM: TGI (SNB-75 CNS)
28.3 µM: TGI (SK-MEL-2 melanoma)
inactive: GI50 (HCC-2998 colon) 1.15 µM | GI50 (SF-268 CNS) 0.795 µM | GI50 (OVCAR-3 ovarian) 1.22 µM | GI50 (SK-MEL-2 melanoma) 2.91 µM | GI50 (NCI/ADR-RES ovarian) 2.77 µM | GI50 (MALME-3M melanoma) 2.55 µM | GI50 (SNB-75 CNS) 1.44 µM | GI50 (HS 578T breast) 1.26 µM
0.491 µM: TGI (SN12C renal)
16.2 µM: TGI (HS 578T breast)
11.5 µM: TGI (NCI/ADR-RES ovarian)

O=C1Nc2ccccc2/C1=C\c1c(-c2ccccc2)nc2sccn12
28.4 µM: TGI (SNB-75 CNS)
22.6 µM: TGI (SK-MEL-2 melanoma)
inactive: GI50 (SN12C renal) 2.75 µM | GI50 (SF-268 CNS) 5.86 µM | GI50 (OVCAR-3 ovarian) 0.506 µM | GI50 (SK-MEL-2 melanoma) 5.87 µM | GI50 (NCI/ADR-RES ovarian) 1.17 µM | GI50 (MALME-3M melanoma) 1.92 µM | GI50 (SNB-75 CNS) 6.74 µM | GI50 (HS 578T breast) 5.58 µM
5.13 µM: TGI (NCI/ADR-RES ovarian)
14.4 µM: TGI (SN12C renal)
0.976 µM: TGI (SR leukemia)
57.1 µM: TGI (SF-268 CNS)
18.7 µM: TGI (HS 578T breast)
1.93 µM: TGI (OVCAR-3 ovarian)
active: GI50 (SR leukemia) 309 nM
21.7 µM: TGI (MALME-3M melanoma)

Fc1cc(F)c(F)c(S)c1F
43.8 µM: TGI (SN12C renal)
38.6 µM: TGI (NCI/ADR-RES ovarian)
> 100 µM: TGI (HCC-2998 colon) | TGI (SF-268 CNS) | TGI (OVCAR-3 ovarian) | TGI (SK-MEL-2 melanoma) | TGI (MALME-3M melanoma) | TGI (SNB-75 CNS) | TGI (HS 578T breast)
